The values below come from PubChem BioAssay AID1159562 (GlaxoSmithKline (GSK), 2015).

Calls of active or inactive are those of the source. How the calls were made is not given here. Bounds are passed on as bounds.

In this assay the test system is Trypanosoma brucei growth inhibition, luminescence. In words: Trypanosoma brucei growth inhibition, luminescence (AID 1159562).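 Further: parasites grew with compound for 24 h before the luminescence read.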
One may read the IC50 as the point on the concentration scale where inhibition reaches its midpoint. For `O=C(c1ccc(Cl)cc1)c1ccc(OC(=O)N2CCOCC2)cc1`, the IC50 is > 40 µM (inactive).

Turning to `O=C(Nc1nc(-c2ccccn2)cs1)N1C[C@H]2C[C@@]2(c2ccccc2)C1`, the IC50 is 0.63 µM.

As to `CC(=O)Nc1ccc(Nc2nccc(-c3cnn4ncccc34)n2)cc1C(F)(F)F`, the IC50 is 0.05 µM.

Regarding `Cc1ccccc1OCC(=O)N1CCCN(c2cccnn2)CC1`, the IC50 is > 40 µM (inactive).

As for `CCCCn1c(=O)c2c(N)onc2n(CCCC)c1=O`, the IC50 was 0.5 µM.

For `N#Cc1cc(-c2ccnc(Nc3cccc(CN4CCOCC4)c3)n2)ccc1NCCN`, the IC50 is 1.3 µM.

With `O=C(NCc1nnc2n1CCCCC2)c1csc(-c2ccccc2)n1`, the IC50 was 0.4 µM.

Take `O=C(COc1nn(-c2ccccc2)c2ncccc12)NCc1ccccc1`: the IC50 was > 40 µM (inactive).

As for `COc1ccc(C2C3CCCCC3(O)CCN2CC(=O)Nc2ccc(Cl)cc2Cl)cc1` (centres undefined), the IC50 is 25 µM.

With `CCOc1ccccc1C(=O)Nc1nnc(-c2ccc3c(c2)OCO3)s1`, the IC50 is > 40 µM (inactive).

For `Cc1nn(-c2nc(N)nc(-c3ccccn3)n2)c(C)c1Cc1ccccc1`, the IC50 was 6.3 µM.

With `Cc1c(C#N)c([N+](=O)[O-])nn1Cc1cccc(Cl)c1Cl`, the IC50 is 25 µM.

Consider `O=C(CC1(O)C(=O)N(Cc2ccccc2)c2ccc(Br)cc21)c1cccnc1` (centres undefined), for which the IC50 is 0.79 µM.

As to `CC(C)C[C@H](NC(=O)c1ccc(-c2ccccc2)o1)C(=O)NC1(C#N)CC1`, the IC50 is 0.05 µM.

Turning to `O=C(Nc1nc(-c2ccc(F)cc2)cs1)c1ccc([N+](=O)[O-])s1`, the IC50 was 1.3 µM.

For the compound `CCC(=O)Nc1ccc(C(=O)Nc2ccccc2-c2ccccc2)cc1`, the IC50 is 25 µM.

`C[C@@H](Oc1cc(-n2cnc3cc(N)ccc32)sc1C(N)=O)c1ccccc1Cl`: the IC50 is 0.79 µM.

For the compound `CN(CCOc1ccc(Cl)cc1)Cc1nc(N)nc(N(C)C)n1`, the IC50 is 16 µM.

As for `c1cc(-c2ncc(-c3ccn[nH]3)s2)ccn1`, the IC50 is > 40 µM (inactive).

Regarding `C=CCn1nc([N+](=O)[O-])nc1Oc1ccc(Cl)cc1Cl`, the IC50 is > 40 µM (inactive).

As to `O=C(CN(Cc1ccccn1)Cc1ccccn1)NCc1ccc(-c2csnn2)cc1`, the IC50 is 7.9 µM.

As to `Cc1nc(N2CC(C)OC(C)C2)sc1C(=O)Nc1ccc2c(c1)OCO2` (centres undefined), the IC50 was > 40 µM (inactive).

As for `O=c1[nH]c(NCCCNCc2cc(Br)cc(Br)c2)nc2ccsc12`, the IC50 was 0.1 µM.

`Cc1nc(C(=O)Nc2ccc3c(c2)OCO3)nn1-c1ccc(F)cc1`: the IC50 is > 40 µM (inactive).

Take `COc1cc2c(cc1OC)[C@H]1[C@@H](C)c3ccc(OC)c(OC)c3CN1CC2`: the IC50 is > 40 µM (inactive).

As to `Cn1nccc1-c1cc(OC(CN)c2ccccc2)cnc1-c1ccco1` (centres undefined), the IC50 was 16 µM.

In the case of `COc1ccccc1C1CC(c2ccc(NS(C)(=O)=O)cc2)=NN1C(=O)c1cccs1` (centres undefined), the IC50 was 20 µM.

Regarding `CC(C)C[C@H](NC(=O)c1csc(-c2cccs2)n1)C(=O)NC1(C#N)CC1`, the IC50 was 0.1 µM.

For `COc1ccc2ncc(=O)n(CCN3CCOC(CNCc4ccc(C(F)(F)F)cc4F)C3)c2n1` (centres undefined), the IC50 is 2.5 µM.

As to `CCOC(=O)c1cn[nH]c1S(=O)(=O)N1CCC1c1ccccc1` (centres undefined), the IC50 was 0.79 µM.

On to `Cc1ccc(C)c(-n2nnnc2Sc2nc([N+](=O)[O-])nn2C)c1`, for which the IC50 was 16 µM.

With `O=C(O)[C@H]1C[C@@H]1c1ccc(-c2ccc(CN(CCc3ccccn3)C(=O)C3CCC3)cc2)cc1`, the IC50 is 0.79 µM.

Consider `COC(=O)c1ccc(-c2cnc3ccc(NCc4ccccn4)nn23)cc1`, for which the IC50 is 1 µM.

For the compound `COc1ccc(-c2cnc(NC(=O)c3ccc(F)cc3)n2C)cc1`, the IC50 was 3.2 µM.

As for `CC(=O)Nc1ccc(-c2ccnc(Nc3cccc(C#N)c3)n2)cc1`, the IC50 is 0.79 µM.

For the compound `O=C(Nc1ccccc1)Nc1nc(-c2ccccn2)cs1`, the IC50 was 1 µM.

`CN(Cc1nc2ccccc2s1)C(=O)C=Cc1cc2ccccc2o1`: the IC50 is > 40 µM (inactive).

For the compound `O=C(N[C@H](CO)c1ccccc1)c1ccc(-c2c[nH]c3nccc(C(F)(F)F)c23)s1`, the IC50 was 0.4 µM.

With `O=C(Nc1cccc(Cl)c1)N1CCCCC1c1cccnc1` (centres undefined), the IC50 is > 40 µM (inactive).

On to `COc1cc(-c2nc(N3CCOCC3)sc2-c2ccnc(NC3CCOCC3)n2)ccc1Cl`, for which the IC50 was > 40 µM (inactive).

On to `O=C(COc1ncnc2cc([N+](=O)[O-])ccc12)NC(=O)NC1CCCCC1`, for which the IC50 is > 40 µM (inactive).

With `Cn1cncc1CN1CCC2(CC1)COC(Cc1ccccc1)C2` (centres undefined), the IC50 was > 40 µM (inactive).

Consider `CC(C)COC(=O)Nc1ccc(N2CCC(CNS(=O)(=O)c3ccccc3)CC2)c(F)c1`, for which the IC50 is 20 µM.

`COc1ccc([N+](=O)[O-])cc1NC(=O)c1cc(Cl)ccc1O`: the IC50 was 25 µM.

In the case of `OC1CCC(Nc2nccc(-c3sc(C4CCOCC4)nc3-c3ccc(F)c(F)c3)n2)CC1` (centres undefined), the IC50 was 4 µM.

For the compound `O=C(Nc1nc(-c2ccc(S(=O)(=O)N3CCOCC3)cc2)cs1)c1ccc([N+](=O)[O-])cc1`, the concentration for half-maximal inhibition (IC50) is 10 µM.

As to `COc1ccc(Cl)cc1CC(=O)Nc1n[nH]c(-c2ccccn2)n1`, the IC50 is > 40 µM (inactive).

With `Clc1ccc(CN2CCN(C3=NCCN3)CC2)cc1Cl`, the IC50 was > 40 µM (inactive).

Turning to `COc1ccc(C(=O)Nc2cc(C(F)(F)F)ccc2N2CCOCC2)c(OC)c1`, the IC50 was 25 µM.

As to `Cn1nc([N+](=O)[O-])nc1Oc1ccc(C(=O)c2ccccc2)cc1`, the IC50 was > 40 µM (inactive).

In the case of `CCCCN(C(=O)c1ccc(NC(=O)C(C)C)cc1)c1ccccc1`, the IC50 was > 40 µM (inactive).

For `O=c1ccn(-c2ccc([N+](=O)[O-])cc2Cl)c2ccc(F)cc12`, the IC50 is > 40 µM (inactive).

With `O=C1NCc2cccc(Nc3nc(NC4CCC(O)CC4)ncc3Br)c21` (centres undefined), the IC50 is 0.13 µM.

With `O=C1CN(C(=O)c2cccc(Nc3ncc(-c4ccc5c(c4)OCO5)cn3)c2)CCN1`, the IC50 is > 50 µM (inactive).

On to `O=C(NCC(c1cccs1)N1CCOCC1)c1ccc([N+](=O)[O-])o1` (centres undefined), for which the IC50 was 0.32 µM.

Turning to `COc1ccc(OC)c(NC(=O)c2ccc([N+](=O)[O-])o2)c1`, the IC50 was 0.063 µM.

`COc1ccc(CNc2cc(C3CC3)nc(-c3nccn3C)n2)cc1`: the IC50 is 2.5 µM.

`CN1C(=O)c2ccccc2Sc2ccc(NC(=O)NCc3ccco3)cc21`: the IC50 is 0.5 µM.

As to `O=C(NCC1CCCCC1)c1cnns1`, the IC50 is 1.3 µM.

Take `NCc1ccc2c(Cl)cc(Cl)c(O)c2n1`: the IC50 is 0.2 µM.

For `Cc1ccccc1NS(=O)(=O)c1ccc2[nH]cc(C(=O)NC3CCCC(C)C3C)c(=O)c2c1` (centres undefined), the IC50 was 0.63 µM.

As for `O=C(NCCc1ccccc1Cl)c1cccn1-c1cccnc1`, the IC50 was > 40 µM (inactive).

For the compound `CC(C)c1cc(Nc2cc(Cc3ccccc3)nc(NC3CCC(O)CC3)n2)n[nH]1` (centres undefined), the IC50 is 0.1 µM.

`O=C(c1cnn(-c2ccccc2)n1)N1CCCC(n2ccnc2)C1` (centres undefined): the half-inhibitory concentration (IC50) was 32 µM.

For the compound `CC1CN(S(=O)(=O)c2ccc(NC(=O)c3cc(C4CC4)nc4c3cnn4C(C)C)cc2)CC(C)O1` (centres undefined), the IC50 was 6.3 µM.

In the case of `CC(C)c1cc(C(=O)N2CCCC(c3cc4ncccc4[nH]3)C2)on1` (centres undefined), the IC50 is > 40 µM (inactive).

As to `O=S(=O)(c1cccc(CSc2nnc(-c3ccc4c(c3)OCO4)o2)c1)N1CCOCC1`, the IC50 was > 40 µM (inactive).

For `O=C(CN(Cc1ccccn1)Cc1ccccn1)NC1Cc2ccccc2C1`, the IC50 was 13 µM.

Consider `O=C(Cn1cnc2c(-c3ccccc3)csc2c1=O)N1CCCCC1`, for which the IC50 was 1 µM.

In the case of `Cc1nccn1C1CCCN(C(=O)c2cc3c(F)cccc3s2)C1` (centres undefined), the IC50 is > 40 µM (inactive).

As for `COc1cccc(-c2cc(C(F)(F)F)nc(-n3ccc([N+](=O)[O-])n3)n2)c1`, the IC50 is > 40 µM (inactive).

Consider `CNc1nc(C)nc(N2CCc3cc(C(=O)NCc4ccc(-c5ccn[nH]5)cc4Cl)ccc32)n1`, for which the IC50 is 10 µM.

With `COc1ccc(S(=O)(=O)Nc2ccc(C(=O)Nc3nc(-c4ccccn4)cs3)cc2)cc1`, the IC50 is 0.63 µM.

For `CC(C)(C)C(=O)NCCc1csc(-c2ccc(F)cc2)n1`, the IC50 was 0.79 µM.

`CN1CCCN(C(=O)c2ccc(N3CCCC3)cc2Cl)CC1`: the IC50 is > 40 µM (inactive).

For the compound `COc1ccc(C(C)N(C)c2ncc3c(N)nc(N)nc3n2)cc1F` (centres undefined), the IC50 is 5 µM.

Take `CC1(C)CCC(=Cc2ccc(Cl)cc2)CC1(O)Cn1ccnc1` (centres undefined): the 50% inhibitory concentration (IC50) was 25 µM.

Turning to `O=C(Nc1nccs1)c1ccccc1Cn1cc([N+](=O)[O-])cn1`, the IC50 was 0.5 µM.

Regarding `CCN(CC)c1nc(Nc2ccncc2)nc2ccccc12`, the IC50 is 5 µM.

Consider `Cc1cc(NC(=O)C2CC2)ccc1OC1CCN(Cc2ccco2)CC1`, for which the IC50 is 0.25 µM.

For `O=C(Nc1nc(-c2ccccn2)cs1)c1ccccc1-n1cnnn1`, the IC50 is 0.63 µM.

For `Cc1nc(C(=O)Nc2ccc3c(c2)OCO3)nn1-c1ccc(Cl)cc1`, the IC50 is > 40 µM (inactive).

For `CN(Cc1nc2c(C(=O)N3CCN(Cc4ccccc4)CC3)cccc2[nH]1)C1CCCc2cccnc21` (centres undefined), the IC50 is 1 µM.

In the case of `O=C1CSC(c2cccnc2)N1c1ccc(Cl)cc1Cl` (centres undefined), the IC50 is > 40 µM (inactive).

In the case of `O=[N+]([O-])c1ccc(-c2nnn(-c3cccnc3)n2)o1`, the IC50 was 0.5 µM.

With `O=C(CC1(O)C(=O)N(Cc2cccs2)c2ccc(Br)cc21)c1cccnc1` (centres undefined), the IC50 was 0.79 µM.

Consider `O=C(Nc1nc2ccccc2[nH]1)c1ccc2nc[nH]c2c1`, for which the IC50 was > 40 µM (inactive).

As for `Cc1nc(-c2ccc3c(c2)OCO3)sc1C(=O)NCc1ccc2c(c1)OCO2`, the IC50 was > 40 µM (inactive).

Consider `COc1ccc(C(=O)N2CCC(Nc3cccnc3)C2)c(OC)n1` (centres undefined), for which the IC50 was > 40 µM (inactive).

Regarding `CCC1Oc2cc(S(=O)(=O)N(C)CC(=O)N3CCc4ccccc4C3)c(C)cc2NC1=O` (centres undefined), the IC50 is 32 µM.

For the compound `Cc1cc(C)nc(N2CCC(N(Cc3cccnc3)C(=O)c3cccc(C#N)c3)CC2)n1`, the IC50 is > 40 µM (inactive).

Consider `CCC(=O)Nc1ccccc1C(=O)Nc1ccccn1`, for which the IC50 was 0.4 µM.

For the compound `Cn1c(CC(=O)NNC(=O)c2ccc3ccccc3n2)nc2ccccc21`, the IC50 is 6.3 µM.

For `Oc1cccnc1-c1n[nH]c(Cc2ccccc2)n1`, the IC50 was 10 µM.
